This passage reports IC50 results from patent publication US12083124B2 (Incyte Corporation, priority 2019, dated 2024).

Each structure is given as a SMILES string. pIC50: −log10 of the molar value. Where two headings read alike, the source gives them in different places. A value given as a limit tells only on which side of the number the result lay.

In test [1] the target is wild-type un-phosphorylated FGFR4 (Homo sapiens, UniProt P22455). The test can be described thus: FGFR Enzymatic Assay (FRET peptide phosphorylation), FGFR4.
Chain of wild-type un-phosphorylated FGFR4 (P22455 22-802): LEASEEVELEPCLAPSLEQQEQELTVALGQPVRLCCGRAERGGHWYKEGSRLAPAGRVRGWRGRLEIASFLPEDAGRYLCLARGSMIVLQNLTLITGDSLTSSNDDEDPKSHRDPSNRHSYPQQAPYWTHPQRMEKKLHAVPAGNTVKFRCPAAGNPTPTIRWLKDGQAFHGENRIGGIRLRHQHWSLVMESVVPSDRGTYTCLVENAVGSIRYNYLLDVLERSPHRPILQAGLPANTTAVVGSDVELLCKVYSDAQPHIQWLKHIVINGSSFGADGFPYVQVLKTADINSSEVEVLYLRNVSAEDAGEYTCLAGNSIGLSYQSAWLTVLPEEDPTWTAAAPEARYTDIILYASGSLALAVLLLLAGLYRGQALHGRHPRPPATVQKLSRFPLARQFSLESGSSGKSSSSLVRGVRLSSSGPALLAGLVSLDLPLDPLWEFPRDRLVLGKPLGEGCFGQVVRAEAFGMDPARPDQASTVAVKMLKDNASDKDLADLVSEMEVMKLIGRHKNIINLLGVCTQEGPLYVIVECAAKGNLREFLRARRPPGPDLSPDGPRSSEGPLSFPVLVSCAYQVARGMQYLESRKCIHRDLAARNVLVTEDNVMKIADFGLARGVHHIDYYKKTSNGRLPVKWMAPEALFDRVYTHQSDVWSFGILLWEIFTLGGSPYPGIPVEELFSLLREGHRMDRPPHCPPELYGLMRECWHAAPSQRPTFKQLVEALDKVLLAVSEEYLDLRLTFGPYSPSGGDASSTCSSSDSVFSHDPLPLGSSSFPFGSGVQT
Method: The inhibitor potency of the exemplified compounds was determined in an enzyme discontinuous assay that measures peptide phosphorylation using FRET measurements to detect product formation. Inhibitors were serially diluted in DMSO and a volume of 0.2 μL was transferred to the wells of a 384-well plate. […] Appropriate controls (enzyme blank and enzyme with no inhibitor) were included on the plate. […] The 10 μL/well reaction concentration of the peptide substrate was 500 nM whereas the ATP concentration was maintained near or below the ATP Km. The ATP Km values were pre-determined in a separate series of experiments. The reaction plate was incubated at 25° C. for 1 hr and the reactions were ended with the addition of 5 μL/well of quench solution (50 mM Tris, 150 mM NaCl, 0.5 mg/mL BSA, pH 7.8; 45 mM EDTA, 600 nM staurosporin, with Perkin Elmer Lance Reagents at 3.75 nM Eu-antibody PY20 and 180 nM APC-Streptavidin). The plate was allowed to equilibrate for ˜10 minutes at ambient temperature before scanning on a PheraStar plate reader (BMG Labtech) instrument.
Either GraphPad prism or XLfit was used to analyze the data. The IC50 values were derived by fitting the data to a four parameter logistic equation producing a sigmoidal dose-response curve with a variable Hill coefficient. Prism equation: Y=Bottom+(Top-Bottom)/(1+10^((Log IC50-X)*Hill slope)); XLfit equation: Y=(A+((B−A)/(1+((X/C)^D)))) where X is the logarithm of inhibitor concentration and Y is the response.
GraphPad prism3 was used to analyze the data. The IC50 values were derived by fitting the data to the equation for a sigmoidal dose-response with a variable slope. Y=Bottom+(Top-Bottom)/(1+10^((Log IC50-X)*Hill Slope)) where X is the logarithm of concentration and Y is the response.
The data in Table 1 was measured in wild-type un-phosphorylated FGFR1, FGFR2, FGFR3, and FGFR4 proteins.
The target in test [2] is wild-type un-phosphorylated FGFR3 (Homo sapiens, UniProt P22607). The test can be described thus: FGFR Enzymatic Assay (FRET peptide phosphorylation), FGFR3.
Chain of wild-type un-phosphorylated FGFR3 (P22607 23-806): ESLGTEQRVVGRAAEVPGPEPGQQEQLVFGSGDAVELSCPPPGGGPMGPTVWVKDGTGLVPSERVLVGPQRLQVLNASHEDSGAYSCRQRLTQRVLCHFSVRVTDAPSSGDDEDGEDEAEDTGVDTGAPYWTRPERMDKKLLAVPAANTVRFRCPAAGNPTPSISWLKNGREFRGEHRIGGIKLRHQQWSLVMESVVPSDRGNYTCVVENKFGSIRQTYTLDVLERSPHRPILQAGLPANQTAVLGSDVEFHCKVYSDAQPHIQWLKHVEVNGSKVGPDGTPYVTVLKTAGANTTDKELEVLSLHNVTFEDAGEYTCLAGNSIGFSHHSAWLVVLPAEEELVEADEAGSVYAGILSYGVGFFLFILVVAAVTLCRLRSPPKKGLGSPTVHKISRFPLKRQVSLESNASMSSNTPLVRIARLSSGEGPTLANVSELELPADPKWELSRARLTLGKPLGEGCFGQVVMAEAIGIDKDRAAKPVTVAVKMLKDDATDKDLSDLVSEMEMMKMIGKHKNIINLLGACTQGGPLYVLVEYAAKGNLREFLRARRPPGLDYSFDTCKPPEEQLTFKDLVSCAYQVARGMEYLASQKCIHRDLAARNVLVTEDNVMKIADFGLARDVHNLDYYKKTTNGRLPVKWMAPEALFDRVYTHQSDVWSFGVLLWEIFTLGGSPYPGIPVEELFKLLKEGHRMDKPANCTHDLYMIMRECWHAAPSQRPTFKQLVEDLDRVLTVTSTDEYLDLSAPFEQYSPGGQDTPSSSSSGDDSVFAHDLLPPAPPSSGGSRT
Test [3] addresses wild-type un-phosphorylated FGFR2 (Homo sapiens, UniProt P21802). Description: FGFR Enzymatic Assay (FRET peptide phosphorylation), FGFR2.
The target of test [4] is wild-type un-phosphorylated FGFR1 (Homo sapiens, UniProt P11362). Description: FGFR Enzymatic Assay (FRET peptide phosphorylation), FGFR1. The conditions noted are these: pre-incubated for 4 hours.
Chain of wild-type un-phosphorylated FGFR1 (P11362 22-822): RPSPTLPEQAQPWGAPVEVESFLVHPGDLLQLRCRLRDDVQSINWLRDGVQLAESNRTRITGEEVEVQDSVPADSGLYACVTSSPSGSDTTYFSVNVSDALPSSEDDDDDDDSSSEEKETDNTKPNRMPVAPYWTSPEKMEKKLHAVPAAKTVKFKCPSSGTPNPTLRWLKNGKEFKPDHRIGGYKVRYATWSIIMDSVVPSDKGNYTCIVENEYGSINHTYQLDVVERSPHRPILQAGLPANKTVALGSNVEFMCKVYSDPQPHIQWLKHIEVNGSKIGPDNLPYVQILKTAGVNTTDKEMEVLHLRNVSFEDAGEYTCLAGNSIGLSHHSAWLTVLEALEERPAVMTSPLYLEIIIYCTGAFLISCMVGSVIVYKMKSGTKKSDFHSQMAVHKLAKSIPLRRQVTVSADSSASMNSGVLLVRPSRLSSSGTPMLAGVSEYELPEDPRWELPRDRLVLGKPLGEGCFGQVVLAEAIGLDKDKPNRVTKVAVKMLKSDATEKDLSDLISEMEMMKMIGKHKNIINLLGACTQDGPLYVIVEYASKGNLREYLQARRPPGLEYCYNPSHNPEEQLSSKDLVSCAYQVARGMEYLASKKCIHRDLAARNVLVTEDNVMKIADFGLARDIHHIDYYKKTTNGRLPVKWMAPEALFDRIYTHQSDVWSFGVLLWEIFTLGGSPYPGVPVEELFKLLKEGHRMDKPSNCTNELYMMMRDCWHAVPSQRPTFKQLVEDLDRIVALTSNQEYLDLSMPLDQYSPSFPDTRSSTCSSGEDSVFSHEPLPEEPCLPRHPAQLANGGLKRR
The mark [5] stands for this setting: read-out: FGFR4, wild-type un-phosphorylated FGFR4, pre-incubated for 4 hours.
Where [6] appears, read: read-out: FGFR1, wild-type un-phosphorylated FGFR1.
[7] abbreviates: FGFR1, wild-type un-phosphorylated FGFR1.

Chain of wild-type un-phosphorylated FGFR2 (P21802 22-821): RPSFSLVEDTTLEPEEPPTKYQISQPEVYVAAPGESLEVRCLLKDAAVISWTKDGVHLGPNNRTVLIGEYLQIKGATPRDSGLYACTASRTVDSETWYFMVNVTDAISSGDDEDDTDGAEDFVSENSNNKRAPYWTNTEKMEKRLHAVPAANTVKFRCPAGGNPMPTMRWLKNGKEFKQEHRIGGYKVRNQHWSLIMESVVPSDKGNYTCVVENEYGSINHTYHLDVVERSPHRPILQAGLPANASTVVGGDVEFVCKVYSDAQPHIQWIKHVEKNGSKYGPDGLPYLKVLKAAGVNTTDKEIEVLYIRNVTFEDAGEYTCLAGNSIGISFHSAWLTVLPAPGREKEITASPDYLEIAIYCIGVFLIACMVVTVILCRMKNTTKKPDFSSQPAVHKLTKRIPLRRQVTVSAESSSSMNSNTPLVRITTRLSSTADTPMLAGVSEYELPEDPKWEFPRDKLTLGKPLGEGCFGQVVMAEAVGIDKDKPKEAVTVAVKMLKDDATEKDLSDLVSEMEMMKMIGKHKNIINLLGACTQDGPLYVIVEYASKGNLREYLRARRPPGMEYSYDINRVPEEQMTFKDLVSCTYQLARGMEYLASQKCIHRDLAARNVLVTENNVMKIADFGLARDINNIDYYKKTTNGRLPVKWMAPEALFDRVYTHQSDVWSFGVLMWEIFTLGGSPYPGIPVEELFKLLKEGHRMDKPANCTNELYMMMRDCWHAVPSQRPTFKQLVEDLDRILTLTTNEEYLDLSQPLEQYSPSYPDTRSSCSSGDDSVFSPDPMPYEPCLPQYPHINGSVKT

Turning to `COc1cc2[nH]nc(-c3ccc(C4CCN(C5CCNC5=O)C4)nc3)c2nc1-c1cccc2c1CCC2` (single isomer, unassigned) [Example 105, 3-(5-(5-(2,3-Dihydro-1H-inden-4-yl)-6-methoxy-1H-pyrazolo[4,3-b]pyridin-3-yl)pyridin-2-yl)-[1,3′-bipyrrolidin]-2′-one], the pIC50 in test [1] (setting [5]) is 7.40 to 8.22; in test [2], greater than 8.22; in test [3], greater than 8.22; in test [4] (setting [6]) it was 7.40 to 8.22.
As to `COc1cc2[nH]nc(-c3ccc(C45CC4CN(CCO)C5)cc3)c2nc1-c1cccc2c1CCC2` (stereo not drawn) [Example 158, 2-(1-(4-(5-(2,3-Dihydro-1H-inden-4-yl)-6-methoxy-1H-pyrazolo[4,3-b]pyridin-3-yl)phenyl)-3-azabicyclo[3.1.0]hexan-3-yl)ethan-1-ol], the pIC50 in test [1] is 7.00 to 7.40; in test [2] it was greater than 8.22; in test [3], greater than 8.22; in test [4] (setting [6]), 7.40 to 8.22.
Regarding `CCN1CC(n2cc(-c3n[nH]c4cc(OC)c(-c5cccc6c5CCC6)nc34)cn2)C1` [Example 18, 5-(2,3-Dihydro-1H-inden-4-yl)-3-(1-(1-ethylazetidin-3-yl)-1H-pyrazol-4-yl)-6-methoxy-1H-pyrazolo[4,3-b]pyridine], the pIC50 is less than 7.00 in test [1], greater than 8.22 in test [2], greater than 8.22 in test [3] and 7.00 to 7.40 in test [4] (setting [7]).
As to `[2H]C1(c2ccc(-c3n[nH]c4cc(OC)c(-c5cccc6c5CCC6)nc34)cn2)CN(C(=O)CO)C1` [Example 179, 1-(3-(5-(5-(2,3-Dihydro-1H-inden-4-yl)-6-methoxy-1H-pyrazolo[4,3-b]pyridin-3-yl)pyridin-2-yl)azetidin-1-yl-3-d)-2-hydroxyethan-1-one], the pIC50 in test [1] (setting [5]) is 7.40 to 8.22; in test [2], greater than 8.22; in test [3], greater than 8.22; in test [4] (setting [6]), 7.40 to 8.22.
Take `CNc1cc2[nH]nc(-c3cnn(C)c3)c2nc1-c1cccc(C)c1C` [Example 34, 5-(2,3-Dimethylphenyl)-N-methyl-3-(1-methyl-1H-pyrazol-4-yl)-1H-pyrazolo[4,3-b]pyridin-6-amine]: the pIC50 in test [1] was less than 7.00; in test [2] it was greater than 8.22; in test [3], greater than 8.22; in test [4] (setting [7]), 7.00 to 7.40.
With `COc1cc2[nH]nc(-c3ccc(CN4CC5CC4CO5)nc3)c2nc1-c1cccc2c1CCC2` (stereo not drawn) [Example 161, 5-((5-(5-(2,3-Dihydro-1H-inden-4-yl)-6-methoxy-1H-pyrazolo[4,3-b]pyridin-3-yl)pyridin-2-yl)methyl)-2-oxa-5-azabicyclo[2.2.1]heptane], the pIC50 was 7.00 to 7.40 in test [1], greater than 8.22 in test [2], greater than 8.22 in test [3] and 7.00 to 7.40 in test [4] (setting [7]).
Take `COc1cc2[nH]nc(-c3cnn(C4CN(S(C)(=O)=O)C4)c3)c2nc1-c1cccc2c1CCC2` [Example 23, 5-(2,3-Dihydro-1H-inden-4-yl)-6-methoxy-3-(1-(1-(methylsulfonyl)azetidin-3-yl)-1H-pyrazol-4-yl)-1H-pyrazolo[4,3-b]pyridine]: the pIC50 is less than 7.00 in test [1], greater than 8.22 in test [2], greater than 8.22 in test [3] and less than 7.00 in test [4] (setting [7]).
`COc1cc2[nH]nc(-c3cnn(C4CN(C(=O)[C@@H](C)O)C4)c3)c2nc1-c1cccc2c1CCC2` [Example 123, (R)-1-(3-(4-(5-(2,3-Dihydro-1H-inden-4-yl)-6-methoxy-1H-pyrazolo[4,3-b]pyridin-3-yl)-1H-pyrazol-1-yl)azetidin-1-yl)-2-hydroxypropan-1-one]: the pIC50 in test [1] (setting [5]) is 7.40 to 8.22; in test [2], greater than 8.22; in test [3], greater than 8.22; in test [4] (setting [6]), 7.40 to 8.22.
As for `COc1cc2[nH]nc(-c3ccc(C4CCN(C5CCN(C)C5=O)C4)nc3)c2nc1-c1cccc2c1CCC2` (single isomer, unassigned) [Example 106, 3-(5-(5-(2,3-Dihydro-1H-inden-4-yl)-6-methoxy-1H-pyrazolo[4,3-b]pyridin-3-yl)pyridin-2-yl)-1′-methyl-[1,3′-bipyrrolidin]-2′-one], the pIC50 in test [1] (setting [5]) was 7.40 to 8.22; in test [2], greater than 8.22; in test [3], greater than 8.22; in test [4] (setting [6]), 7.40 to 8.22.
As to `[2H]C1(n2cc(-c3n[nH]c4cc(OC)c(-c5cccc6c5CCC6C#N)nc34)cn2)CCN(C(=O)C2CCOCC2)CC1` (stereo not drawn) [Example 167, 4-(6-Methoxy-3-(1-(1-(tetrahydro-2H-pyran-4-carbonyl)piperidin-4-yl-4-d)-1H-pyrazol-4-yl)-1H-pyrazolo[4,3-b]pyridin-5-yl)-2,3-dihydro-1H-indene-1-carbonitrile], the pIC50 in test [1] is 7.00 to 7.40; in test [2] it was greater than 8.22; in test [3] it was greater than 8.22; in test [4] (setting [7]), 7.00 to 7.40.
Turning to `COc1cc2[nH]nc(-c3cnn([C@H]4CCN(C(=O)[C@@H](C)O)C4)c3)c2nc1-c1cccc2c1CCC2` [Example 132, (R)-1-((S)-3-(4-(5-(2,3-Dihydro-1H-inden-4-yl)-6-methoxy-1H-pyrazolo[4,3-b]pyridin-3-yl)-1H-pyrazol-1-yl)pyrrolidin-1-yl)-2-hydroxypropan-1-one], the pIC50 is 7.00 to 7.40 in test [1], greater than 8.22 in test [2], greater than 8.22 in test [3] and 7.40 to 8.22 in test [4] (setting [6]).
For the molecule `COc1cc2[nH]nc(-c3ccc(C4CCN(C(=O)N5CCOCC5)CC4)nc3)c2nc1-c1cccc2c1CCC2C#N` (single isomer, unassigned) [Example 181, 4-(6-Methoxy-3-(6-(1-(morpholine-4-carbonyl)piperidin-4-yl)pyridin-3-yl)-1H-pyrazolo[4,3-b]pyridin-5-yl)-2,3-dihydro-1H-indene-1-carbonitrile], the pIC50 in test [1] (setting [5]) was 7.40 to 8.22; in test [2], greater than 8.22; in test [3] it was greater than 8.22; in test [4] (setting [6]) it was 7.40 to 8.22.
Turning to `COc1cc2[nH]nc(-c3ccc(C4CCN(C(=O)CO)CC4)nc3)c2nc1-c1cccc2c1CCC2` [Example 100, 1-(4-(5-(5-(2,3-Dihydro-1H-inden-4-yl)-6-methoxy-1H-pyrazolo[4,3-b]pyridin-3-yl)pyridin-2-yl)piperidin-1-yl)-2-hydroxyethan-1-one], the pIC50 in test [1] (setting [5]) was 7.40 to 8.22; in test [2], greater than 8.22; in test [3], greater than 8.22; in test [4] (setting [6]), 7.40 to 8.22.
Regarding `COc1cc2[nH]nc(-c3ccc(N4CCN(C)CC4)nc3)c2nc1-c1cccc2c1CCC2C#N` (single isomer, unassigned) [Example 186, 4-(6-Methoxy-3-(6-(4-methylpiperazin-1-yl)pyridin-3-yl)-1H-pyrazolo[4,3-b]pyridin-5-yl)-2,3-dihydro-1H-indene-1-carbonitrile], the pIC50 in test [1] (setting [5]) was 7.40 to 8.22; in test [2], greater than 8.22; in test [3], greater than 8.22; in test [4] (setting [6]) it was 7.40 to 8.22.
For `CCN1CCN(c2ccc(-c3n[nH]c4cc(OC)c(-c5cccc(C)c5C)nc34)cn2)CC1` [Example 42, 5-(2,3-Dimethylphenyl)-3-(6-(4-ethylpiperazin-1-yl)pyridin-3-yl)-6-methoxy-1H-pyrazolo[4,3-b]pyridine], the pIC50 was less than 7.00 in test [1], greater than 8.22 in test [2], greater than 8.22 in test [3] and 7.00 to 7.40 in test [4] (setting [7]).
